The subject of test [1] is MOLM-14 (acute myeloid leukemia) cell line. The experiment in a line: CellTiter-Glo luminescent cell viability assay, MOLM-14. It is filed as cell-based, human. The note with it: Homo sapiens; for viability at 4 µM: MOLM-14, compound at 4 μM; for viability at 4 µM / viability at 10 µM: 72 h; for viability at 10 µM: MOLM-14, compound at 10 μM; for pEC50: MOLM-14 cell line, 72 h incubation, CellTiter-Glo, read-out: EC50, growth inhibition of MOLM-14. Summed up: (§1)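 72 h compound exposure, 37 °C, 5% CO2, 10% FBS medium; ATP luminescence read after 30 min RT equilibration. Viability as % of H2O/DMSO diluent control; EC50 = dose giving 50% of control signal. Duplicate points minimum.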

Test [2] concerns A375 (malignant melanoma) cell line. Kind of test: CellTiter-Glo luminescent cell viability assay, A375. It counts as cell-based, human. To be noted: Homo sapiens, A-375; for viability at 4 µM: A375, compound at 4 μM; for viability at 4 µM / viability at 10 µM: 72 h; for viability at 10 µM: A375, compound at 10 μM; for pEC50: A375 cell line, 72 h incubation, CellTiter-Glo, read-out: EC50, growth inhibition of A375. Summed up: (§2)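 In a 72 h viability assay, compound-treated cells were compared against matched H2O or DMSO diluent controls by luminescence, points in at least duplicate.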

Test [3] deals with HCT-116 (colorectal carcinoma) cell line. The experiment in a line: CellTiter-Glo luminescent cell viability assay, HCT-116. It is filed as cell-based, human. The note with it: Homo sapiens; for viability at 4 µM: HCT-116, compound at 4 μM; for viability at 4 µM / viability at 10 µM: 72 h; for viability at 10 µM: HCT-116, compound at 10 μM; for pEC50: HCT-116 cell line, 72 h incubation, CellTiter-Glo, read-out: EC50, growth inhibition of HCT-116. Summed up:
as §2

Test [4] has as its system Huh7 (hepatocellular carcinoma) cell line. The experiment in a line: CellTiter-Glo luminescent cell viability assay, Huh7. The note with it: Homo sapiens, Huh-7; for viability at 4 µM: Huh7, compound at 4 μM; for viability at 4 µM / viability at 10 µM: 72 h; for viability at 10 µM: Huh7, compound at 10 μM; for pEC50: Huh7 cell line, 72 h incubation, CellTiter-Glo, read-out: EC50, growth inhibition of Huh7. It is filed as cell-based, human. The procedure, abridged: as §1

The subject of test [5] is 786-O (renal adenocarcinoma) cell line. Kind of test: CellTiter-Glo luminescent cell viability assay, 786-O. It is filed as cell-based, human. The note with it: Homo sapiens, 786-0; for viability at 4 µM / viability at 10 µM: 786-O, 72 h; for viability at 4 µM: compound at 4 μM; for viability at 10 µM: compound at 10 μM; for pEC50: 786-O cell line, 72 h incubation, CellTiter-Glo, read-out: EC50, growth inhibition of 786-O. Summed up:
as §2

In test [6] the test system is HepG2 (hepatocellular carcinoma) cell line. The experiment in a line: CellTiter-Glo luminescent cell viability assay, HepG2. It is filed as cell-based, human. To be noted: Homo sapiens; for viability at 4 µM / viability at 10 µM: HepG2, HepG, 72 h; for viability at 4 µM: compound at 4 μM; for viability at 10 µM: compound at 10 μM; for pEC50: HepG2 cell line, 72 h incubation, CellTiter-Glo, read-out: EC50, growth inhibition of HepG2. The procedure, abridged:
as §1

Test [7] deals with PANC-1 (prancreatic carcinoma) cell line. Kind of test: CellTiter-Glo luminescent cell viability assay, PANC-1. The note with it: Homo sapiens; for viability at 4 µM: PANC-1, 4 μM; for viability at 4 µM / viability at 10 µM: 72 h, % of signal of diluent-treated cultures; for viability at 10 µM: PANC-1, 10 μM; for pEC50: PANC-1 cell line, 72 h incubation, CellTiter-Glo, read-out: EC50 (growth inhibition assay of PANC-1 cell line). It counts as cell-based. The protocol: All cell lines were maintained in medium containing 1% penicillin-streptomycin (Dutscher, P06-07100) and 10% Fetal Bovine Serum (Hyclone Dutscher, RZK35922) cultured at 37° C. with 5% CO2. HepG2 (hepatocellular carcinoma), cell line was cultured in Dulbecco's modified Eagle's medium low glucose (Gibco, 21885025), Huh7 (hepatocellular carcinoma), HCT-116 (colorectal carcinoma), PANC-1 (prancreatic carcinoma) and A375 (malignant melanoma) cell lines were cultured in Dulbecco's modified Eagle's medium (Dutscher, L0103). MOLM-14 (acute myeloid leukemia) cell line was maintained in MEM alpha medium (Gibco, 22561-021). 786-0 (renal adenocarcinoma) cell lines were maintained in RPMI 1640 medium (Dutscher, L0498).
Cell viability was measured using the CellTiter-Glo® luminescent cell viability assay as described by the manufacturer (Promega, Ref G7571) using an Infinite F200Pro luminometer (Tecan). Briefly, for adherent cells, cells were plated onto 96-well plates (white with clear bottom) in 90 μL of media per well and were allowed to grow overnight before the assay. For cells growing in suspension, cells were plated onto 96-well plates 1 h before the assay.
Compounds were resuspended in H2O or DMSO and added at different concentrations to each well, and cell cultures were incubated for 72 h. Each diluent (H2O or DMSO) were used as a control, and all compounds were tested in a constant percentage of H2O or DMSO. On the day of the reading, plates are equilibrated 30 min at room temperature before the addition of 100 μL of CellTiter-Glo® and luminescence was measured using an Infinite F200Pro (Tecan). % cell viability were expressed as a percentage of the signal obtained for cell cultures treated with diluent. EC50 values were determined as the dose of compound required to reduce luminescent values to 50% of the signal obtained for cell cultures treated with diluent. The experimental data were analyzed using a computer program, Graphpad Prism v5 (GraphPad Software, Inc. La Jolla, Calif.). All points were at least done in duplicate.

The structures appear in SMILES notation. pEC50: −log10 of the molar value.

In the case of `CCN(CC)C1CCCN(c2c(C#N)c(NCc3ccc(Cl)cc3)nc3ccccc23)C1` (stereo not shown) [Compound 160CN, 2-(4-chlorobenzylamino)-3-cyano-4-[3-(diethylamino)piperidin-1-yl]quinoline], the viability at 4 µM in test [1] was 106%; in test [2] it was 86.6%; in test [3], 86.4%; in test [4], 89.5%; in test [5], 94.9%; in test [6], 94.5%. In test [7], the viability at 4 µM came to 99.6%. Further, the viability at 10 µM in test [1] stood at 94.5%; in test [2], 47.9%; in test [3] it was 47.3%; in test [4] it was 62.3%; in test [5] it was 40%; in test [6], 48.3%. The viability at 10 µM in test [7] is 75.3%.
Consider `Cc1ccc(CNc2nc3ccccc3c(N3CCC(NC(C)(C)C)CC3)c2C#N)cc1` [Compound 3288CN, 2-(4-methylbenzylamino)-3-cyano-4-[4-(tert-butylamino)piperidin-1-yl]quinoline], for which the viability at 4 µM turned out to be 62.8% in test [1]; 0.5% in test [2]; 0.5% in test [3]; 0.6% in test [4]; 1.9% in test [5]; 0.6% in test [6]. Moreover, in test [7], the viability at 4 µM is 63.5%. Further, the viability at 10 µM is 0.4% in test [1]; 0.3% in test [2]; 0.2% in test [3]; 0.3% in test [4]; 0.3% in test [5]; 0.3% in test [6]. Further, the viability at 10 µM in test [7] was 0.6%. Also, the pEC50 in test [1], in test [2], in test [3], in test [4], in test [5] and in test [6] was 5.30 to 6.30 each time. For the same compound, the pEC50 in test [7] is 5.00 to 5.30.
In the case of `Cc1ccc2nc(NCc3ccc(Cl)cc3)c(C#N)c(N3CCC(NC(C)(C)C)CC3)c2c1` [Compound 418CN, 2-(4-chlorobenzylamino)-3-cyano-4-[4-(tert-butylamino)piperidin-1-yl]-6-methylquinoline], the viability at 4 µM in test [1] is 3.8%; in test [2] it was 0.3%; in test [3] it was 0.2%; in test [4], 50.5%; in test [5], 0.9%; in test [6], 5%. Also, in test [7], the viability at 4 µM is 79.8%. The viability at 10 µM in test [1] came to 0.3%; in test [2], 0.3%; in test [3] it was 0.2%; in test [4] it was 0.3%; in test [5] it was 0.2%; in test [6], 0.2%. Further, the viability at 10 µM in test [7] came to 0.4%. The negative logarithm of the EC50 (pEC50) in test [1], in test [2], in test [3], in test [4], in test [5] and in test [6] was 5.30 to 6.30 in each case. Besides, the pEC50 in test [7] was 5.00 to 5.30.
`CC(C)(C)NC1CCN(c2c(C#N)c(NCc3ccc(F)cc3)nc3ccccc23)CC1` [Compound 240CN, 2-(4-fluorobenzylamino)-3-cyano-4-[4-(tert-butylamino)piperidin-1-yl]quinoline]: the viability at 4 µM is 100% in test [1]; 64.5% in test [2]; 55.2% in test [3]; 80% in test [4]; 77.2% in test [5]; 86.7% in test [6]. Also, the viability at 4 µM in test [7] is 98.3%. Further, the viability at 10 µM was found to be 0.5% in test [1]; 0.3% in test [2]; 0.3% in test [3]; 0.4% in test [4]; 0.7% in test [5]; 0.4% in test [6]. In addition, in test [7], the viability at 10 µM is 30%. Also, the pEC50 in test [1] was 5.00 to 5.30; in test [2], 5.30 to 6.30; in test [3], 5.30 to 6.30; in test [4] it was 5.30 to 6.30; in test [5], 5.00 to 5.30; in test [6], 5.30 to 6.30. Further, the pEC50 in test [7] was 5.00 to 5.30.
As to `CN1CCN(C2CCCN(c3c(C#N)c(NCc4ccc(Cl)cc4)nc4ccccc34)C2)CC1` (stereo not shown) [Compound 3168CN, 2-(4-chlorobenzylamino)-3-cyano-4-[3-(4-methylpiperazin-1-yl)piperidin-1-yl]quinoline], the viability at 4 µM in test [1] came out at 105%; in test [2], 61%; in test [3], 40.7%; in test [4] it was 80.1%; in test [5], 75.4%; in test [6], 87.8%. The viability at 4 µM in test [7] came to 100%. Besides, the viability at 10 µM is 0.8% in test [1]; 0.8% in test [2]; 0.5% in test [3]; 0.7% in test [4]; 0.6% in test [5]; 0.6% in test [6]. Moreover, in test [7], the viability at 10 µM was 22.3%. For the same compound, the pEC50 is 5.00 to 5.30 in test [1]; 5.30 to 6.30 in test [2]; 5.30 to 6.30 in test [3]; 5.30 to 6.30 in test [4]; 5.30 to 6.30 in test [5]; 5.00 to 5.30 in test [6]. The pEC50 in test [7] is 5.00 to 5.30.
As for `CC(C)(C)OC(=O)NC1CCCN(c2c(C#N)c(NCc3ccc(Cl)cc3)nc3ccccc23)C1` (stereo not shown) [Compound 154CN], the viability at 4 µM in test [1] stood at 112%; in test [2] it was 96.2%; in test [3] it was 98.8%; in test [4], 101%; in test [5] it was 94.1%; in test [6], 105%. The viability at 4 µM in test [7] came out at 107%. The viability at 10 µM in test [1] came out at 113%; in test [2], 88.5%; in test [3], 87.2%; in test [4], 93.5%; in test [5] it was 82.3%; in test [6] it was 97.5%. Further, the viability at 10 µM in test [7] turned out to be 99%.

Source of the values: patent US10577362B2, “Substituted 2, 4-diamino-quinoline derivatives for use in the treatment of proliferative diseases” (GENOSCIENCE PHARMA, priority 2016, dated 2020).
